The text below walks through data of ChEMBL document CHEMBL1145408, “Substituted E-3-(2-chloro-3-indolylmethylene)1,3-dihydroindol-2-ones with antitumor activity. Effect on the cell cycle and apoptosis” (2007).

Where a name gives a salt, the structure may show the parent alone. Active and inactive are the calls of the source. The rule behind the calls is not given here.

The target in one assay is T1, Caspase-7 (Homo sapiens) (UniProt P55210).
T1 sequence (whole entry): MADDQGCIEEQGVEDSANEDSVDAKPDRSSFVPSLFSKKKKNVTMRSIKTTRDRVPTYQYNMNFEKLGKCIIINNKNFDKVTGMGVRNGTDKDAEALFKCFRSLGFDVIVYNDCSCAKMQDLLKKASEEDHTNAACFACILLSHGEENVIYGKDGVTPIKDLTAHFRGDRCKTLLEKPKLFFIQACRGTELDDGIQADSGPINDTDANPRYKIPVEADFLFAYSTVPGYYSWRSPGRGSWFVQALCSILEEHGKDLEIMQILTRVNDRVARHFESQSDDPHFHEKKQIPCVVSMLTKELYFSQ
Nature of the assay: Activation of caspase 7 activity in IGROV1 cells assessed as DEVD peptide hydrolysis at 5 uM after 24 hrs. The class given is cell-based. Particulars: IGROV-1.

The next assay addresses T2, Caspase-3 (Homo sapiens) (UniProt P42574).
T2 sequence (whole entry): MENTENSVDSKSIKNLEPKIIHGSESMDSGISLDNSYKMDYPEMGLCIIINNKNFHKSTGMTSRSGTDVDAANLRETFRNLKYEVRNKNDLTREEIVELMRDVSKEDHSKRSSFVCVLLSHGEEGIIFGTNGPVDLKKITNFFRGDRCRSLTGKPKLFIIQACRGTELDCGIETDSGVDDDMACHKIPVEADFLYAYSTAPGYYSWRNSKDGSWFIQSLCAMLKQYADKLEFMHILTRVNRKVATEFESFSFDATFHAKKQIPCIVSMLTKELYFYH
In words: Activation of caspase 3 activity in IGROV1 cells assessed as DEVD peptide hydrolysis at 5 uM after 24 hrs. The class given is cell-based. Particulars: IGROV-1.

Assay [1] is described as follows: Antitumor activity against prostate tumor cells. Type of assay: functional. Particulars: Homo sapiens; for CC50: read-out: Log LC50 (the source's name) (converted); for TGI: read-out: pTGI (converted).
A short description of assay [2]: Antitumor activity against melanoma cells. The class given is functional. As to conditions: Homo sapiens, Melanoma cell; for CC50: read-out: Log LC50 (the source's name) (converted); for TGI: read-out: pTGI (converted).
The nature of assay [3]: Antitumor activity against renal tumor cells. The class given is functional. Particulars: Homo sapiens; for TGI: read-out: pTGI (converted).
A short description of assay [4]: Antitumor activity against leukemia cells. As to conditions: Homo sapiens, Leukemia cell; for TGI: read-out: pTGI (converted). Type of assay: functional.
Assay [5] in a line: Antitumor activity against colon tumor cells. The class given is functional. Particulars: Homo sapiens; for TGI: read-out: pTGI (converted).
Assay [6] can be described thus: Antitumor activity against breast tumor cells. As to conditions: Homo sapiens; for TGI: read-out: pTGI (converted). The class given is functional.
The nature of assay [7]: Antitumor activity against CNS tumor cells. Type of assay: functional. As to conditions: Homo sapiens; for TGI: read-out: pTGI (converted).
The nature of assay [8]: Antitumor activity against ovarian tumor cells. The class given is functional. As to conditions: Homo sapiens; for TGI: read-out: pTGI (converted).
In another assay the test system is NSCLC. In words: Antitumor activity against NSCLC cells. The class given is functional. As to conditions: Homo sapiens; for TGI: read-out: pTGI (converted).

Consider `COc1cc2c(/C=C3/C(=O)Nc4ccc(F)cc43)c(Cl)n(Cc3ccccc3)c2cc1C`, for which the result on Caspase-7 (Homo sapiens) and at Caspase-3 (Homo sapiens) was Active.
Consider `COc1cc2c(/C=C3/C(=O)Nc4cccc(Cl)c43)c(Cl)n(C)c2cc1C`, for which the result at Caspase-7 (Homo sapiens) and at Caspase-3 (Homo sapiens) was Active.
In the case of `COc1cc2c(/C=C3/C(=O)Nc4ccc(F)cc43)c(Cl)n(C)c2cc1C`, the outcome on Caspase-7 (Homo sapiens) and on Caspase-3 (Homo sapiens) was Active.
Consider `COc1cc2c(/C=C3/C(=O)Nc4ccc(O)cc43)c(Cl)n(Cc3ccc(Cl)cc3)c2cc1C`, for which the result at Caspase-7 (Homo sapiens) and on Caspase-3 (Homo sapiens) was Active.
As for `COc1cc2c(/C=C3/C(=O)Nc4cc(C)c(O)cc43)c(Cl)n(C)c2cc1C`, the outcome on Caspase-7 (Homo sapiens) and on Caspase-3 (Homo sapiens) was Active.
As to `COc1cc2c(/C=C3/C(=O)Nc4ccccc43)c(Cl)n(C)c2cc1C`, the outcome at Caspase-7 (Homo sapiens) and at Caspase-3 (Homo sapiens) was Active.
Regarding `COc1cc2c(/C=C3/C(=O)Nc4ccc(O)cc43)c(Cl)n(C)c2cc1C`, the outcome on Caspase-7 (Homo sapiens) and at Caspase-3 (Homo sapiens) was Active.
`COc1cc2c(/C=C3/C(=O)Nc4cccc(Cl)c43)c(Cl)n(Cc3ccc(Cl)cc3)c2cc1C`: the result at Caspase-7 (Homo sapiens) and at Caspase-3 (Homo sapiens) was Active.
Turning to `COc1cc2c(/C=C3/C(=O)Nc4ccc(F)cc43)c(Cl)[nH]c2cc1C`, the result on Caspase-7 (Homo sapiens) and on Caspase-3 (Homo sapiens) was Active.
For the molecule `COc1cc2c(/C=C3/C(=O)Nc4ccc(Cl)cc43)c(Cl)n(C)c2cc1C`, the result on Caspase-7 (Homo sapiens) and on Caspase-3 (Homo sapiens) was Active.
For `COc1cc2c(/C=C3/C(=O)Nc4cc(C)c(O)cc43)c(Cl)n(Cc3ccc(Cl)cc3)c2cc1C`, the outcome at Caspase-7 (Homo sapiens) and at Caspase-3 (Homo sapiens) was Active.
The term GI50 denotes the concentration at which growth is held to half of that of the control. A high value points to lower sensitivity of the cells. One may read the LC50 as the concentration lethal to half of the exposed cells or organisms. For `COc1cc2c(/C=C3/C(=O)Nc4c3ccc3ccccc43)c(Cl)n(C)c2cc1C`, the result at Caspase-7 (Homo sapiens) and at Caspase-3 (Homo sapiens) was Active. For the same molecule, the GI50 in [1] is 562 nM; in [2], 53.7 nM; in assay [3], 72.4 nM; in [4], 17.4 nM; in [5] it was 77.6 nM; in assay [6] it was 46.8 nM. In addition, the GI50 was 115 nM in [7], 35.5 nM in assay [8] and 30.9 nM in the assay with NSCLC. The CC50 was 25.7 µM in assay [1] and 36.3 µM in assay [2]. The TGI was 2.45 µM in [1]; 6.61 µM in [2]; 2.63 µM in [3]; 501 nM in assay [4]; 0.129 µM in assay [5]; 3.02 µM in assay [6]. In addition, the TGI is 1620 nM in assay [7], 562 nM in assay [8] and 4.79 µM with NSCLC. For the same molecule, the 50% lethal concentration (LC50) in assay [3] was 22.4 µM; in [5], 5.13 µM; in [6], 13.8 µM; in [7] it was 30.9 µM; in assay [8], 22.9 µM; in the assay with NSCLC it was 50.1 µM.
For `CC[C@]1(O)C[C@H]2CN(CCc3c([nH]c4ccccc34)[C@@](C(=O)OC)(c3cc4c(cc3OC)N(C=O)[C@H]3[C@@](O)(C(=O)OC)[C@H](OC(C)=O)[C@]5(CC)C=CCN6CC[C@]43[C@@H]65)C2)C1` [VINCRISTINE SULFATE], the GI50 is 126 nM in assay [1]; 158 nM in assay [2]; 316 nM in [3]; 100 nM in assay [4]; 100 nM in [5]; 316 nM in assay [6]. In addition, the concentration for 50% growth inhibition (GI50) in assay [7] is 126 nM; in [8] it was 316 nM; with NSCLC it was 251 nM. Moreover, the CC50 is 316 µM in assay [1] and 251 µM in assay [2]. Further, the TGI in [1] was 6.31 µM; in assay [2], 7.94 µM; in assay [3] it was 20 µM; in assay [4], 15800 nM; in [5], 3.98 µM; in assay [6] it was 7.94 µM. The TGI in assay [7] is 6310 nM; in assay [8], 20000 nM; in the assay with NSCLC, 15.8 µM.
For `COc1cc2c(/C=C3/C(=O)Nc4ccc(Cl)cc43)c(Cl)n(Cc3ccc(Cl)cc3)c2cc1C`, the outcome at Caspase-7 (Homo sapiens) and on Caspase-3 (Homo sapiens) was Active.
For `COc1cc2c(/C=C3/C(=O)Nc4c3ccc3ccccc43)c(Cl)[nH]c2cc1C`, the outcome on Caspase-7 (Homo sapiens) and at Caspase-3 (Homo sapiens) was Active. Moreover, the GI50 in assay [1] is 17 nM; in assay [2], 10 nM; in assay [3], 89.1 nM; in [4], 10.2 nM; in [5], 17 nM; in assay [6] it was 39.8 nM. The concentration for 50% growth inhibition (GI50) in assay [7] is 13.5 nM; in assay [8], 12 nM; in the assay on NSCLC, 102 nM. The CC50 is 50.1 µM in assay [1] and 40.7 µM in assay [2]. Moreover, the TGI in assay [1] is 50.1 µM; in assay [2] it was 3.55 µM; in assay [3], 30.9 µM; in assay [4], 537 nM; in assay [5] it was 3.72 µM; in [6], 2.04 µM. For the same molecule, the TGI is 794 nM in [7], 708 nM in assay [8] and 4.27 µM with NSCLC. Also, the 50% lethal concentration (LC50) in assay [3] is 50.1 µM; in [5], 50.1 µM; in [6], 50.1 µM; in assay [7], 50.1 µM; in [8], 47.9 µM; in the assay with NSCLC it was 49 µM.
